We go through 13 compounds from patent US20240342292A1, “Compounds for the Degradation of EGFR Kinase” (BeiGene Switzerland GmbH, priority 2021, published 2024).

The subject of one assay is Del19/T790M/C797S EGFR. The assay can be described thus: EGFR degradation HTRF assay in H1975-clone #28 (DTC) cells. Type of assay: cell-based. The settings on record: H1975 # 28 DTC (Del19/T790M/C797S), 16h treatment; for DC50: HTRF; for Dmax (%): maximum percentage of degradation. In a few lines: (§1)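 EGFR levels quantified by HTRF on lysates after 16 h compound exposure (top 10 uM, 5-fold, 8 points) in single-cell H1975 clones expressing only exogenous mutant EGFR after sgRNA knockout of endogenous copies. DC50 derived by four-parameter logistic fitting of inhibition percentage.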
On the technique in general: In TR-FRET formats the signal depends on donor and acceptor labels being close together.

In a further assay the target is T1, L858R/T790M/C797S EGFR (Homo sapiens, UniProt P00533, C797S/L858R/T790M).
T1 construct: expressed in transfected cells; host or cells: H1975 clone #25 (lentiviral over-expression, endogenous EGFR knocked out by sgRNA)
T1 sequence (P00533 25-1210 T790M/C797S/L858R): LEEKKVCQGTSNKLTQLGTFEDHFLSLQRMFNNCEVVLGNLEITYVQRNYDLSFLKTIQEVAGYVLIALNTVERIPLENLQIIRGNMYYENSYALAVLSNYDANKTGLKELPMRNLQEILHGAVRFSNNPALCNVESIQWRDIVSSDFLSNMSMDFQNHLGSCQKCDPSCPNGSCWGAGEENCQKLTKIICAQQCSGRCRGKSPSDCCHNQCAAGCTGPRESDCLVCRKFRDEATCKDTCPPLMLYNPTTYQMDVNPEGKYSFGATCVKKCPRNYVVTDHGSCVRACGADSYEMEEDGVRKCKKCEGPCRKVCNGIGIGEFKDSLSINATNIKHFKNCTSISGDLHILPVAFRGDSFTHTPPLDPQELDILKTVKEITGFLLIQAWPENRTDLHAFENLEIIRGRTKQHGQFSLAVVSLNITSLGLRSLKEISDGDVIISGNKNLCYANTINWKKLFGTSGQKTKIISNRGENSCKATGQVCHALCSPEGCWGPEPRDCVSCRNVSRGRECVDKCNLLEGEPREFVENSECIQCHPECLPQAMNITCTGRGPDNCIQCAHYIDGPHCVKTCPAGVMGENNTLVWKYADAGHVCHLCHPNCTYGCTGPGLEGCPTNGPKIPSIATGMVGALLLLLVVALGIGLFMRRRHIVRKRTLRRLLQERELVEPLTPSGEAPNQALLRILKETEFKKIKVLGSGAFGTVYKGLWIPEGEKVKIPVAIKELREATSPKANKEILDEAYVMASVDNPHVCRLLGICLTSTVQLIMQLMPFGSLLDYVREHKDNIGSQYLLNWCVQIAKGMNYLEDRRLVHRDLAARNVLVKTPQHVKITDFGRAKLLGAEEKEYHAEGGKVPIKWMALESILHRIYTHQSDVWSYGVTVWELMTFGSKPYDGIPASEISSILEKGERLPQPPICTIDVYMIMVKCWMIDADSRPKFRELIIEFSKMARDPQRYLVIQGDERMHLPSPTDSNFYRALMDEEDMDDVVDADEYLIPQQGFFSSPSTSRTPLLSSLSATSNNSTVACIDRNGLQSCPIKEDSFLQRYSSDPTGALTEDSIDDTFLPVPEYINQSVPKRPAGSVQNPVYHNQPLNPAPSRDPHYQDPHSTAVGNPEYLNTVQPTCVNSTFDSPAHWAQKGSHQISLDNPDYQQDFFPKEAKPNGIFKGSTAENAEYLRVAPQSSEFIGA
The assay can be described thus: EGFR degradation HTRF assay in H1975-clone #25 (LTC) cells. The note with it: 16h treatment; for DC50: H1975 # 25-LTC (L858R/T790M/C797S), HTRF; for Dmax: NCI-H1975, H1975 # 25-LTC (L858R/T790M/C797S), maximum percentage of degradation. Type of assay: cell-based. In a few lines:
as §1

Each structure is given as a SMILES string.

For the compound `Cc1cc2cc(n1)-c1cnn(C)c1OCCC[C@@H](C)CN1/C(=N/C2=O)Nc2ccc(N3CCC(C(=O)N4CCC(Nc5cc(F)c([C@H]6CCC(=O)NC6=O)c(F)c5)CC4)CC3)cc21` [Example 402, (R)-3-(2,6-difluoro-4-((1-(1-((R,E)-1^1,2^6,7-trimethyl-3-oxo-5^2,53-dihydro-1^1H,5^1H-11-oxa-4-aza-5(2,1)-benzo[d]imidazola-2(2,4)-pyridina-1(4,5)-pyrazolacycloundecaphane-5^6-yl)piperidine-4-carbonyl)piperidin-4-yl)amino)phenyl)piperidine-2,6-dione], in the assay with Del19/T790M/C797S EGFR, it took 0.525 nM to reach half-maximal degradation (DC50) and the “Dmax (%)” value was determined as 82.56%. Besides, at L858R/T790M/C797S EGFR, the DC50 amounted to 0.633 nM and the greatest degradation seen (Dmax) came out at 88.3%.
`Cc1cc2cc(n1)-c1cnn(C)c1OCCC[C@@H](C)CN1/C(=N/C2=O)Nc2ccc(C(=O)N3CCC4(CC3)CN(CCc3cc(F)c([C@H]5CCC(=O)NC5=O)c(F)c3)C4)cc21` [Example 310, (R)-3-(2,6-difluoro-4-(2-(7-((R,E)-1^1,2^6,7-trimethyl-3-oxo-5^2,5^3-dihydro-1^1H,5^1H-11-oxa-4-aza-5(2,1)-benzo[d]imidazola-2(2,4)-pyridina-1(4,5)-pyrazolacycloundecaphane-5^6-carbonyl)-2,7-diazaspirononan-2-yl)ethyl)phenyl)piperidine-2,6-dione]: in the assay on Del19/T790M/C797S EGFR, the DC50 was determined as 0.578 nM and the “Dmax (%)” value was determined as 80.51%. On L858R/T790M/C797S EGFR, this compound registered a 50% degradation concentration (DC50) of 0.464 nM and a maximal degradation (Dmax) of 87.8%.
The corresponding values for `Cc1cc2cc(n1)-c1cnn(C)c1OCCCCCN1/C(=N/C2=O)Nc2ccc(CN3CCN(CCc4cc(F)c([C@H]5CCC(=O)NC5=O)c(F)c4)CC3)cc21` [Example 144, (R,E)-3-(4-(2-(4-((1^1,2^6-dimethyl-3-oxo-5^2,5^3-dihydro-1^1H,5^1H-11-oxa-4-aza-5(2,1)-benzo[d]imidazola-2(2,4)-pyridina-1(4,5)-pyrazolacycloundecaphane-5^6-yl)methyl)piperazin-1-yl)ethyl)-2,6-difluorophenyl)piperidine-2,6-dione] are 0.508 nM, 55.85%, 0.761 nM and 80.8%.
In the case of `COc1cc2cc(n1)-c1cnn(C)c1OCCC[C@@H](C)CN1/C(=N/C2=O)Nc2ccc(N3CCN(C4CCN(c5cc(F)c([C@H]6CCC(=O)NC6=O)c(F)c5)CC4)CC3)cc21` [Example 453, (R)-3-(2,6-difluoro-4-(4-(4-((R,E)-2^6-methoxy-1^1,7-dimethyl-3-oxo-5^2,5^3-dihydro-1^1H,5^1H-11-oxa-4-aza-5(2,1)-benzo[d]imidazola-2(2,4)-pyridina-1(4,5)-pyrazolacycloundecaphane-5^6-yl)piperazin-1-yl)piperidin-1-yl)phenyl)piperidine-2,6-dione], in the assay on Del19/T790M/C797S EGFR, half-maximal degradation (DC50) was put at 1.43 nM and the “Dmax (%)” value turned out to be 82.83%. Besides, at L858R/T790M/C797S EGFR, the DC50 turned out to be 3.17 nM and the Dmax is 85.3%.
With `Cc1cc2cc(n1)-c1cnn(C)c1OCCC[C@@H](C)CN1/C(=N/C2=O)Nc2ccc(C(=O)N3CCC4(CC3)CN(C(=O)C3CN(c5cc(F)c([C@H]6CCC(=O)NC6=O)c(F)c5)C3)C4)cc21` [Example 221, (R)-3-(2,6-difluoro-4-(3-(7-((R,E)-1^1,2^6,7-trimethyl-3-oxo-5^2,53-dihydro-1^1H,5^1H-11-oxa-4-aza-5(2,1)-benzo[d]imidazola-2(2,4)-pyridina-1(4,5)-pyrazolacycloundecaphane-5^6-carbonyl)-2,7-diazaspirononane-2-carbonyl)azetidin-1-yl)phenyl)piperidine-2,6-dione], in the assay on Del19/T790M/C797S EGFR, half-maximal degradation (DC50) was put at 0.901 nM and the “Dmax (%)” value was 85.41%. On L858R/T790M/C797S EGFR, this compound yielded a 50% degradation concentration (DC50) of 0.705 nM and a maximal degradation (Dmax) of 94%.
The matching figures for `Cc1cc2cc(n1)-c1cnn(C)c1OCCC[C@@H](C)CN1/C(=N/C2=O)Nc2ccc(N3CCC(C(=O)N4CCN(c5cc(F)c([C@H]6CCC(=O)NC6=O)c(F)c5)CC4)CC3)cc21` [Example 333, (R)-3-(2,6-difluoro-4-(4-(1-((R,E)-1^1,2^6,7-trimethyl-3-oxo-5^2,5^3-dihydro-1^1H,5^1H-11-oxa-4-aza-5(2,1)-benzo[d]imidazola-2(2,4)-pyridina-1(4,5)-pyrazolacycloundecaphane-5^6-yl)piperidine-4-carbonyl)piperazin-1-yl)phenyl)piperidine-2,6-dione]: 0.684 nM, 75.17%, 0.687 nM and 86.1%.
The matching figures for `Cc1cc2cc(n1)-c1cnn(C)c1OCCC[C@@H](C)CN1/C(=N/C2=O)Nc2ccc(CN3CCC4(CC3)CN(CCc3cc(F)c([C@H]5CCC(=O)NC5=O)c(F)c3)C4)cc21` [Example 23, (R)-3-(2,6-difluoro-4-(2-(7-(((R,E)-1^1,2^6,7-trimethyl-3-oxo-5^2,5^3-dihydro-1^1H,5^1H-11-oxa-4-aza-5(2,1)-benzo[d]imidazola-2(2,4)-pyridina-1(4,5)-pyrazolacycloundecaphane-5^6-yl)methyl)-2,7-diazaspiro[3.5]nonan-2-yl)ethyl)phenyl)piperdine-2,6-dione]: 2.1 nM, 78.0%, 2.3 nM and 91.8%.
Turning to `Cc1cc2cc(n1)-c1cnn(C)c1OCCC[C@@H](C)CN1/C(=N/C2=O)Nc2ccc(N3CCC(N4CCC(Oc5cc(F)c([C@H]6CCC(=O)NC6=O)c(F)c5)CC4)CC3)cc21` [Example 381, (R)-3-(2,6-difluoro-4-((1′-((R,E)-1^1,2^6,7-trimethyl-3-oxo-5^2,5^3-dihydro-1^1H,5^1H-11-oxa-4-aza-5(2,1)-benzo[d]imidazola-2(2,4)-pyridina-1(4,5)-pyrazolacycloundecaphane-5^6-yl)-[1,4′-bipiperidin]-4-yl)oxy)phenyl)piperidine-2,6-dione], in the assay on Del19/T790M/C797S EGFR, half-maximal degradation (DC50) was put at 1.06 nM and the “Dmax (%)” value amounted to 60.14%. At L858R/T790M/C797S EGFR, the 50% degradation concentration (DC50) was found to be 0.9 nM and the Dmax was found to be 83.6%.
The corresponding values for `Cc1cc2cc(n1)-c1cnn(C)c1OCCC[C@@H](C)CN1/C(=N/C2=O)Nc2ccc(C(=O)N3CC[C@H](NCCc4cc(F)c([C@H]5CCC(=O)NC5=O)c(F)c4)C3)cc21` [Example 298, (R)-3-(2,6-difluoro-4-(2-(((S)-1-((R,E)-1^1,2^6,7-trimethyl-3-oxo-5^2,5^3-dihydro-1^1H,5^1H-11-oxa-4-aza-5(2,1)-benzo[d]imidazola-2(2,4)-pyridina-1(4,5)-pyrazolacycloundecaphane-5^6-carbonyl)pyrrolidin-3-yl)amino)ethyl)phenyl)piperidine-2,6-dione] are 1.2 nM, 66.58%, 1.14 nM and 90.1%.
The corresponding values for `Cc1cc2cc(n1)-c1cnn(C)c1OCCC[C@@H](C)CN1/C(=N/C2=O)Nc2ccc(C(=O)N(C)C3CCN(CCc4cccc5c4oc(=O)n5C4CCC(=O)NC4=O)CC3)cc21` (stereo partly drawn) [Example 315, (7R,E)-N-(1-(2-(3-(2,6-dioxopiperidin-3-yl)-2-oxo-2,3-dihydrobenzo[d]oxazol-7-yl)ethyl)piperidin-4-yl)-N,1^1,2,7-tetramethyl-3-oxo-5^2,5^3-dihydro-1^1H,5^1H-11-oxa-4-aza-5(2,1)-benzo[d]imidazola-2(2,4)-pyridina-1(4,5)-pyrazolacycloundecaphane-5^6-carboxamide] are 3.18 nM, 63.86%, 1.37 nM and 80.5%.
`Cc1cc2cc(n1)-c1cnn(C)c1OCCC[C@@H](C)CN1/C(=N/C2=O)Nc2ccc(CC3CCN(C(=O)C4CN(c5cc(F)c([C@H]6CCC(=O)NC6=O)c(F)c5)C4)CC3)cc21` [Example 159, (R)-3-(2,6-difluoro-4-(3-(4-(((R,E)-1^1,2^6,7-trimethyl-3-oxo-5^2,5^3-dihydro-1^1H,5^1H-11-oxa-4-aza-5(2,1)-benzo[d]imidazola-2(2,4)-pyridina-1(4,5)-pyrazolacycloundecaphane-5^6-yl)methyl)piperidine-1-carbonyl)azetidin-1-yl)phenyl)piperidine-2,6-dione]: in the assay on Del19/T790M/C797S EGFR, half-maximal degradation (DC50) was put at 1.77 nM and the “Dmax (%)” value turned out to be 79.77%. On L858R/T790M/C797S EGFR, this compound returned a DC50 of 1.48 nM and a Dmax of 79.9%.
For the compound `CO[C@H]1CN(CCc2cc(F)c([C@H]3CCC(=O)NC3=O)c(F)c2)CC[C@H]1NC(=O)c1ccc2c(c1)N1C[C@H](C)CCCOc3c(cnn3C)-c3cc(cc(C)n3)C(=O)/N=C/1N2` [Example 244, (R,E)-N-((3S,4R)-1-(4-((R)-2,6-dioxopiperidin-3-yl)-3,5-difluorophenethyl)-3-methoxypiperidin-4-yl)-1^1,2^6,7-trimethyl-3-oxo-5^2,5^3-dihydro-1^1H,5^1H-li-oxa-4-aza-5(2,1)-benzo[d]imidazola-2(2,4)-pyridina-1(4,5)-pyrazolacycloundecaphane-5^6-carboxamide], in the assay on Del19/T790M/C797S EGFR, half-maximal degradation (DC50) was put at 0.548 nM and the “Dmax (%)” value worked out at 78.89%. Moreover, on L858R/T790M/C797S EGFR, the DC50 turned out to be 0.167 nM and the Dmax is 95.3%.
For the compound `Cc1cc2cc(n1)-c1cnn(C)c1OCCC[C@@H](C)CN1/C(=N/C2=O)Nc2ccc(C3CCN(C(=O)[C@H]4CN(c5cc(F)c([C@H]6CCC(=O)NC6=O)c(F)c5)CC4(C)C)CC3)cc21` [Example 327, (R)-3-(4-((R)-3,3-dimethyl-4-(4-((R,E)-1^1,2^6,7-trimethyl-3-oxo-5^2,53-dihydro-1^1H,5^1H-11-oxa-4-aza-5(2,1)-benzo[d]imidazola-2(2,4)-pyridina-1(4,5)-pyrazolacycloundecaphane-5^6-yl)piperidine-1-carbonyl)pyrrolidin-1-yl)-2,6-difluorophenyl)piperidine-2,6-dione], in the assay on Del19/T790M/C797S EGFR, the 50% degradation concentration (DC50) was found to be 1.09 nM and the “Dmax (%)” value was 74.51%. On L858R/T790M/C797S EGFR, this compound showed a DC50 of 3.17 nM and a Dmax of 83.7%.

For orientation: DC50 means the concentration at which degradation of the target reaches its halfway point. The low end stands for a more potent degrader, the high end for a less potent degrader. One may read the Dmax as the largest share of the target that was removed.
